US9879050B2, “Substituted urea depsipeptide analogs as activators of the CLPP endopeptidase” (priority 2013, dated 2018)
In brackets after ≈: the same amount, converted by molar mass.

Legend:
[1] = target: T1, Sa-ClpP (Staphylococcus aureus, UniProt Q2G036); test: ADEP displacement fluorescence polarization assay; type: binding, S. aureus; settings: 1 μM Sa-ClpP, 50 nM FP probe ADEP 2591; read-out: ADEP Displacement IC50
T1 construct: made in house; host or cells: E. coli BL21 (DE3)
Procedure, shortened: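 Displacement of TAMRA-labelled ADEP 2591 probe (50 nM) from 1 μM Sa-ClpP, pre-equilibrated 1 h in Tris·HCl pH 8.0 with 2% DMSO, then 120 min at room temperature with compound, triplicate. Polarization (mP) read ex 530/em 579 nm, normalised to 20 μM ADEP 2378 and DMSO controls; four-parameter fit.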

[2] = target: T1, Sa-ClpP; test: ClpP activation, EnzCheck Protease Assay with Bodipy-FL casein (second described method); type: biochemical, S. aureus; settings: read-out: ClpP Activation EC50 (converted)
Procedure, shortened: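 Sa-ClpP (2 μM in master mix) with Bodipy-FL casein (2 μM in master mix) in Tris-HCl pH 8.0, 0.01% Triton X-100, compounds in 2% DMSO, triplicate. Fluorescence (ex 485/em 520 nm) followed 30 min; degradation slopes normalized to ADEP4 and DMSO controls, EC50 and % activation by four-parameter fit.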

[3] = test system: S. pyogenes ATCC 700294; test: Minimal inhibitory concentration, microbroth dilution; type: cell-based; settings: Streptococcus pyogenes, ATCC700294, read-out: Minimal Inhibitory Concentration S. pyogenes ATCC 700294
Procedure, shortened: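 Twofold serial dilutions in broth per CLSI M7-A7 microbroth dilution, incubated aerobically overnight at 37° C. MIC read visually as lowest concentration preventing bacterial growth.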

[4] = test system: B. subtilis ATCC 23857; test: as above; type: cell-based; settings: Bacillus subtilis, ATCC23857, read-out: Minimal Inhibitory Concentration B. subtilis ATCC 23857
Procedure, shortened: (§1)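 MICs were determined by CLSI broth microdilution, using two-fold compound dilutions from a final 200 μM and about 10^5 cfu/mL inoculum. Plates were incubated aerobically at 37 °C overnight. The MIC was read visually as the lowest concentration preventing growth.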

[5] = test system: S. aureus ATCC 29213; test: as above; type: cell-based; settings: Staphylococcus aureus, ATCC29213, read-out: Minimal Inhibitory Concentration S. aureus ATCC 29213
Procedure, shortened: as §1

T1 sequence (Q2G036 whole entry): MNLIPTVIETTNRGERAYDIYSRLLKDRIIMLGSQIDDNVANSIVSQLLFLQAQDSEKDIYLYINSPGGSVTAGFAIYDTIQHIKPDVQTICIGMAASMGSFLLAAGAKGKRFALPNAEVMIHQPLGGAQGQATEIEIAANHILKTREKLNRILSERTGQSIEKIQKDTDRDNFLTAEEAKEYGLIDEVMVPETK

C[C@H]1C[C@H]2C(=O)O[C@@H](C)[C@H](NC(=O)[C@H](Cc3cc(F)cc(F)c3)NC(=O)Nc3ccc(C(F)(F)F)cc3)C(=O)N3CCC[C@H]3C(=O)N3CCCC[C@H]3C(=O)N[C@@H](C)C(=O)N2C1 [Compound 19, (S)-3-(3,5-Difluorophenyl)-2-(3-(4-(Trifluoromethyl)Phenyl)Ureido)-N-((2R,6S,8aS,14aS,20S,21S,23aS)-2,6,21-Trimethyl-5,8,14,19,23-Pentaoxooctadecahydro-1H,5H,14H,19H-Pyrido[2,1-I]Dipyrrolo[2,1-C:2′,1′-L][1]Oxa[4,7,10,13]Tetraazacyclohexadecin-20-Yl)Propanamide]
IC50 [1]: 5.7 ± 0.3 µM
EC50 [2]: 0.33 µM
MIC [3]: 0.4 µM (≈ 0.345 µg/mL)
MIC [4]: < 0.1 µM
MIC [5]: 0.1 µM (≈ 0.0862 µg/mL)

Cc1ccc(NC(=O)N[C@@H](Cc2ccccc2)C(=O)N[C@H]2COC(=O)[C@@H]3C[C@@H](C)CN3C(=O)[C@H](C)NC(=O)[C@@H]3CCCCN3C(=O)[C@@H]3CCCN3C2=O)cc1 [Compound 23, (S)—N-((2R,6S,8aS,14aS,20S,23aS)-2,6-Dimethyl-5,8,14,19,23-Pentaoxooctadecahydro-1H,5H,14H,19H-Pyrido[2,1-I]Dipyrrolo[2,1-C:2′,1′-L][1]Oxa[4,7,10,13]Tetraazacyclohexadecin-20-Yl)-3-Phenyl-2-(3-(P-Tolyl)Ureido)Propanamide]
IC50 [1]: 7.1 ± 0.3 µM
EC50 [2]: 0.5 µM
MIC [3]: < 0.2 µM
MIC [4]: < 0.2 µM
MIC [5]: 0.4 µM (≈ 0.303 µg/mL)

Cc1ccc(NC(=O)N[C@@H](Cc2cc(F)cc(F)c2)C(=O)N[C@H]2COC(=O)[C@@H]3C[C@@H](C)CN3C(=O)[C@H](C)NC(=O)[C@@H]3CCCCN3C(=O)[C@@H]3CCCN3C2=O)cc1 [Compound 24, (S)-3-(3,5-Difluorophenyl)-N-((2R,6S,8aS,14aS,20S,23aS)-2,6-Dimethyl-5,8,14,19,23-Pentaoxooctadecahydro-1H,5H,14H,19H-Pyrido[2,1-I]Dipyrrolo[2,1-C:2′,1′-L][1]Oxa[4,7,10,13]Tetraazacyclohexadecin-20-Yl)-2-(3-(P-Tolyl)Ureido)Propanamide]
IC50 [1]: 8.6 ± 0.5 µM
EC50 [2]: 0.4 µM
MIC [3]: 0.5 µM (≈ 0.397 µg/mL)
MIC [4]: 2.2 µM (≈ 1.75 µg/mL)
MIC [5]: 0.5 µM (≈ 0.397 µg/mL)
